Assay results from patent US4017611A, “Control of insects with 3-hydroxymethacrylic acid methyl ester dimethylthionophosphate” (priority 1970, dated 1977).
Like-named read-outs stand apart in the source and are kept apart here.

Assays:
[1] = tested on: rats; test: Acute oral toxicity (warm blooded toxicity) in rats; conditions: orally, rats
[2] = as above; conditions: rat, in vivo, po
[3] = tested on: adult houseflies; test: Gas action against adult houseflies; format: in vivo, Musca domestica (housefly); conditions: 10 mg active substance, 2 liter glass cylinder
Procedure: Using a pipette 10 mg of active substance were placed on a watch glass which was then covered with a wire mesh and placed in a 2 liter glass cylinder. Immediately thereafter 30 houseflies were introduced into the container which was then sealed.
A comparative test between compound 1 and PHOSDRIN (Registered Trade Mark) carried out according to this method gave the following mortality periods in minutes for 10%, 50% and 100% kill of the test animals.

[4] = tested on: one day old houseflies (Musca domestica); test: Ingestion test with one day old houseflies; format: in vivo; conditions: read-out: % flies killed; for mortality at 0.4 ppm: 0.4 ppm in 30% sugar water; for mortality at 0.8 ppm: 0.8 ppm in 30% sugar water; for mortality at 1.5 ppm: 1.5 ppm in 30% sugar water; for mortality at 3 ppm: 3 ppm in 30% sugar water; for mortality at 6 ppm: 6 ppm in 30% sugar water; for mortality at 12 ppm: 12 ppm in 30% sugar water; for mortality at 25 ppm: 25 ppm in 30% sugar water; for mortality at 50 ppm: 50 ppm in 30% sugar water; for mortality at 100 ppm: 100 ppm in 30% sugar water
Procedure: Dilution series were manufactured with water. As solvent for the test preparations and similarly as a nutrition agent for the flies, 30% sugar water was used which had been coloured with chlorantin light red (as an attractant). The dilutions were tested with one day old houseflies. The 1, 2 and 4 hour controls enabled the speed of action to be determined. By means of the 24 hour control the limit concentration (action strength) could also be determined.

COC(=O)C=C(C)OP(=O)(OC)OC [Phosdrin, reference compound]
warm blooded toxicity LD50 [1]: 3-7 mg/kg body weight | LD50 [2]: 3 to 7 mg/kg | Mortality time for 10% of the houseflies ([3]; 10% kill): 22 min | Mortality time for 50% of the houseflies ([3]; 50% kill): 25 min | Mortality time for 100% of the houseflies ([3]; 100% kill): 30 min | mortality at 0.4 ppm ([4]; 1 hour): 0% | mortality at 0.4 ppm ([4]; 2 hours): 0% | mortality at 0.4 ppm ([4]; 4 hours): 0% | mortality at 0.4 ppm ([4]; 24 hours): 0% | mortality at 0.8 ppm ([4]; 1 hour): 0% | mortality at 0.8 ppm ([4]; 2 hours): 0% | mortality at 0.8 ppm ([4]; 4 hours): 0% | mortality at 0.8 ppm ([4]; 24 hours): 0% | mortality at 1.5 ppm ([4]; 1 hour): 0% | mortality at 1.5 ppm ([4]; 2 hours): 0% | mortality at 1.5 ppm ([4]; 4 hours): 0% | mortality at 1.5 ppm ([4]; 24 hours): 0% | mortality at 3 ppm ([4]; 1 hour): 0% | mortality at 3 ppm ([4]; 2 hours): 0% | mortality at 3 ppm ([4]; 4 hours): 0% | mortality at 3 ppm ([4]; 24 hours): 20% | mortality at 6 ppm ([4]; 1 hour): 0% | mortality at 6 ppm ([4]; 2 hours): 0% | mortality at 6 ppm ([4]; 4 hours): 10% | mortality at 6 ppm ([4]; 24 hours): 80% | mortality at 12 ppm ([4]; 1 hour): 0% | mortality at 12 ppm ([4]; 2 hours): 0% | mortality at 12 ppm ([4]; 4 hours): 20% | mortality at 12 ppm ([4]; 24 hours): 90% | mortality at 25 ppm ([4]; 1 hour): 20% | mortality at 25 ppm ([4]; 2 hours): 40% | mortality at 25 ppm ([4]; 4 hours): 60% | mortality at 25 ppm ([4]; 24 hours): 100% | mortality at 50 ppm ([4]; 1 hour): 30% | mortality at 50 ppm ([4]; 2 hours): 70% | mortality at 50 ppm ([4]; 4 hours): 80% | mortality at 50 ppm ([4]; 24 hours): 100% | mortality at 100 ppm ([4]; 1 hour): 100% | mortality at 100 ppm ([4]; 2 hours): 100% | mortality at 100 ppm ([4]; 4 hours): 100% | mortality at 100 ppm ([4]; 24 hours): 100%
